Reference: US11951092B2, “Agent for preventing or treating brain atrophy” (FUJIFILM Toyama Chemical Co., Ltd., priority 2017, dated 2024)

Legend:
[1] = tested on: mild to moderate AD patients (brain volume: whole brain, hippocampus); assay: Test Example 2: Early Phase II placebo-controlled trial, brain volume change by volumetric MRI; type: in vivo, human
Text: Multicenter Randomized Double-Blind Early Phase II Placebo-Controlled Trial for Assessing Effectiveness and Safety of Compound A in Mild to Moderate AD Patients
Patients were screened in a period from 28 days before treatment assignment to the assignment based on the following selection criteria. Patients matched (373 patients) were randomly divided into the following 2 groups and the trial was started.
Patients who were probable AD and over or 50 years old or older and 90 years old or younger at the time of obtaining consent of screening.
Patients with an MMSE score of 15 to 24 at the time of screening
(§1) Patients with a Modified Hachinski Ischemia Scale score of 4 or less
Patients who have been treated with a donepezil hydrochloride for at least 6 months before the baseline and with a stable dose thereof for 3 months before the baseline.
Patients whose brain MRI or CT results match AD at the time of screening Organization of groups:
(1) Active drug group: 224 mg of a test compound (160 mg in terms of Compound A) was orally administered once a day for 52 weeks (176 patients)
(2) Placebo group: placebo was orally administered once a day for 52 weeks (178 patients) Method of assessment:
(§2) Brain volume of subjects was measured by vMRI scan at the screening and after 52 weeks, and the volume change of the whole brain and the hippocampus of the subjects were quantified to assess brain atrophy based on the change from the screening.
The mean amount of volume change of the whole brain and the hippocampus after 52 weeks from the baseline, standard deviation and the difference from the placebo group were calculated.

[2] = tested on: mild to moderate AD patients (brain volume: whole brain, hippocampus, 101 areas); assay: Test Example 1: Phase II placebo-controlled trial, brain volume change by volumetric MRI; type: in vivo, human; settings: for Change in brain volume, Hippocampus, Least square means / Change in brain volume, Whole brain, Least square means / Change in brain volume, Hippocampus, Difference from placebo group / Change in brain volume, Whole brain, Difference from placebo group: vMRI at week 52 from baseline
Text: Multicenter Randomized Double-Blind Phase II Placebo-Controlled Trial for Assessing Effectiveness and Safety of Compound A in Mild to Moderate AD Patients Subject (selection criteria): Patients were screened in a period from 42 days before treatment assignment to the assignment based on the following selection criteria.
Patients who were probable AD and are 55 years old or older and 85 years old or younger at the time of obtaining consent of screening.
Patients with an MMSE score of 12 to 22 at the time of screening
as §1
Patients who have been treated with a donepezil hydrochloride or rivastigmine transdermal system for at least 4 months before the baseline and with a stable dose thereof for 3 months before the baseline.
In the case of patients who have received memantine in addition to being treated with a donepezil hydrochloride or rivastigmine transdermal system, patients who have been treated with memantine for at least 4 months before the baseline and with a stable dose thereof for 3 months before the baseline.
Patients whose brain MRI or CT results match AD at the time of screening
Organization of groups: Patients matched (484 patients) were randomly divided into the following 3 groups and the trial was started.
(1) High dose group: 224 mg of a test compound (160 mg in terms of Compound A) was orally administered once a day for 4 weeks and then 448 mg of a test compound (320 mg in terms of Compound A) was orally administered once a day for 48 weeks (158 patients)
(2) Low dose group: 224 mg of a test compound (160 mg in terms of Compound A) was orally administered once a day for 52 weeks (166 patients)
(3) Placebo group: placebo was orally administered once a day for 52 weeks (158 patients)
as §2
Furthermore, volume change of the whole brain and 101 areas (obtained by dividing the areas existing in both the left brain and the right brain of the Brodmann areas (1 to 52) into 101 areas) in each subject was quantified to assess brain atrophy based on the change from the screening.
Changes in the volume of the whole brain and the hippocampus after 52 weeks from the baseline were compared between the high dose group and the placebo group, and between the low dose group and the placebo group based on Mixed-effect Models. For models, the treatment groups were included as a fixed effect, age, baseline of the respective brain volumes (the whole brain or the hippocampus), baseline of MMSE and ApoE4 genotype (positive/negative) were included as covariates, and trial sites were included as a random effect.
Furthermore, changes in the respective volumes of the whole brain and the 101 areas after 52 weeks from the baseline were compared between the high dose group and the placebo group, and between the low dose group and the placebo group.

[3] = Compound A group vs placebo group, week 52 from baseline
[4] = Low dose (active drug) group, 160 mg in terms of Compound A oral once a day, 52 weeks, vMRI at week 52 from baseline
[5] = Low dose (active drug) group, vMRI at week 52 from baseline
[6] = High dose group (160 mg for 4 weeks then 320 mg in terms of Compound A, oral once a day, 48 weeks)
[7] = Low dose group (160 mg in terms of Compound A, oral once a day, 52 weeks)

For `OC1CN(CCCOCCc2ccc3sccc3c2)C1` [Compound A, 1-(3-(2-(1-benzothiophen-5-yl)ethoxy)propyl)azetidin-3-ol], the “Change in the volume of the whole brain and the hippocampus versus placebo group (in words)” value [1, 3] was “volume reduction tended to be smaller”, the “Change in brain volume, Hippocampus, Mean change” value [1, 4] was -0.21 mL and the “Change in brain volume, Whole brain, Mean change” value [1, 4] was -3.83 mL. For the same molecule, the “Change in brain volume, Hippocampus, Difference from placebo group” value [1, 5] was 0.09 mL, the “Change in brain volume, Whole brain, Difference from placebo group” value [1, 5] was 3.41 mL and the “Change in the volume of the whole brain and the hippocampus versus placebo group (in words)” value [2, 3] was “volume reduction tended to be smaller”. For the same molecule, the “Volume reduction of the whole brain and the hippocampus versus placebo group (in words)” value ([2]; Compound A high dose group, analysis of whole brain and 101 areas) was “same tendency as in the low dose group was observed”, the “Volume reduction of the whole brain and the hippocampus versus placebo group (in words)” value ([2]; Compound A low dose group, analysis of whole brain and 101 areas (Nos. 6 and 14 in Table 2)) was “tended to be suppressed” and the “Change in brain volume, Hippocampus, Least square means” value [2, 6] was -0.31 mL. For the same molecule, the “Change in brain volume, Whole brain, Least square means” value [2, 6] was -20.05 mL, the “Change in brain volume, Hippocampus, Difference from placebo group” value ([2]; High dose group) was 0.08 mL and the “Change in brain volume, Whole brain, Difference from placebo group” value ([2]; High dose group) was 3.94 mL. For the same molecule, the “Change in brain volume, Hippocampus, Least square means” value [2, 7] was -0.27 mL, the “Change in brain volume, Whole brain, Least square means” value [2, 7] was -21.37 mL and the “Change in brain volume, Hippocampus, Difference from placebo group” value ([2]; Low dose group) was 0.12 mL. For the same molecule, the “Change in brain volume, Whole brain, Difference from placebo group” value ([2]; Low dose group) was 2.63 mL and the “Change in brain volume, Mean value, Right-Cerebellum-White-Matter” value ([2]; Low dose group, week 52 from baseline, whole brain and 101 areas analysis) was −0.89.
